Inhibition and IC50 data for eleven molecules are collected here from patent US10940139B2, “Compounds that interact with the Ras superfamily for the treatment of cancers, inflammatory diseases, rasopathies, and fibrotic disease” (Shy Therapeutics LLC, priority 2017, dated 2021).

What all share (experiment): Ras GTP binding domain inhibition assay (labeled GTP)
Assay [1] deals with KRas G12D mutant protein (Homo sapiens (Human), UniProt P01116, G12D). Conditions: 20 μM compound.
Assay [2] concerns the target KRas G12D/Q61H double mutant (Homo sapiens (Human), UniProt P01116, G12D/Q61H). Conditions: for inhibition at 20 µM: 20 μM compound. The method in brief:
(§1)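 Fluorescence read-out of Cy3-/Cy5-GTP remaining bound to nickel-immobilized His-KRas after washes. Protein was coated overnight at 4° C, then exposed to compound for 3 h at room temperature before a 45 min labeled-GTP incubation.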

Assay [3] addresses KRas G12C mutant (Homo sapiens (Human), UniProt P01116, G12C). The settings on record: 20 μM compound. The method in brief:
as §1

Assay [4] deals with KRas wild type (Homo sapiens (Human), UniProt P01116). Conditions: 20 μM compound. The method in brief: as §1
For assay [5], the target named is KRas G12C/Q61H double mutant (Homo sapiens (Human), UniProt P01116, G12C/Q61H). The settings on record: 20 μM compound. The procedure, abridged:
as §1

Assay [6] has as its target KRas Q61H mutant (Homo sapiens (Human), UniProt P01116, Q61H). The settings on record: 20 μM compound. The method in brief:
as §1

[7] abbreviates: read-out: % Inhibition at 20 μM KRas G12D.
Setting [8] is: read-out: % Inhibition at 20 μM KRas G12D Q61H.
Setting [9] is: read-out: % Inhibition at 20 μM KRas G12C.
Setting [10] is: read-out: % Inhibition at 20 μM KRas wild type.
Where [11] appears, read: read-out: % Inhibition at 20 μM KRas G12C Q61H.
The mark [12] stands for this setting: read-out: % Inhibition at 20 μM KRas Q61H.
[13] abbreviates: KRas G12D, read-out: % Inhibition at 20 μM of K-Ras mutant and wild-type protein, KRas G12D.
Setting [14] is: KRas G12D/Q61H double mutant, read-out: % Inhibition at 20 μM of K-Ras mutant and wild-type protein, KRas G12D Q61H.
Where [15] appears, read: KRas G12C, read-out: % Inhibition at 20 μM of K-Ras mutant and wild-type protein, KRas G12C.
Where [16] appears, read: KRas wild type, read-out: % Inhibition at 20 μM of K-Ras mutant and wild-type protein, KRas wild type.
The mark [17] stands for this setting: KRas G12C/Q61H double mutant, read-out: % Inhibition at 20 μM of K-Ras mutant and wild-type protein, KRas G12C Q61H.
The mark [18] stands for this setting: KRas Q61H, read-out: % Inhibition at 20 μM of K-Ras mutant and wild-type protein, KRas Q61H.

Where two headings read alike, the source gives them in different places.

KRas G12D mutant protein, sequence (P01116-2 other isoform, or with tags, fused parts or gaps G12D): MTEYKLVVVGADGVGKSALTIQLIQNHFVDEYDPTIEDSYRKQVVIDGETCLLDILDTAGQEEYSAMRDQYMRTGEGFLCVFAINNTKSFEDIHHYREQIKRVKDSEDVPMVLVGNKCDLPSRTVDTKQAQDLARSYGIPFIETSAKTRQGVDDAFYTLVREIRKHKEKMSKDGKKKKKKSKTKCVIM
KRas Q61H mutant, sequence (P01116-2 other isoform, or with tags, fused parts or gaps Q61H): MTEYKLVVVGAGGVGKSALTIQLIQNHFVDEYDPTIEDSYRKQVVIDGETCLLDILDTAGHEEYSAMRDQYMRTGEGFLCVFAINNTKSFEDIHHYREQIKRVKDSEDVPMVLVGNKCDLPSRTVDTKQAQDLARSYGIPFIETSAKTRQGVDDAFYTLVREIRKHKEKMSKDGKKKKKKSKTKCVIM
KRas G12C mutant, sequence (P01116-2 other isoform, or with tags, fused parts or gaps G12C): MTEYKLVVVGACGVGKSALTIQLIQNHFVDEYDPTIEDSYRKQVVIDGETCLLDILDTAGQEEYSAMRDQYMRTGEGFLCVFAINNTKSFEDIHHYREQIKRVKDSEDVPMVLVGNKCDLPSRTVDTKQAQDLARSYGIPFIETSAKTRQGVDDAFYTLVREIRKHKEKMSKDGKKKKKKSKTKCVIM
KRas G12D/Q61H double mutant, sequence (P01116-2 other isoform, or with tags, fused parts or gaps G12D/Q61H): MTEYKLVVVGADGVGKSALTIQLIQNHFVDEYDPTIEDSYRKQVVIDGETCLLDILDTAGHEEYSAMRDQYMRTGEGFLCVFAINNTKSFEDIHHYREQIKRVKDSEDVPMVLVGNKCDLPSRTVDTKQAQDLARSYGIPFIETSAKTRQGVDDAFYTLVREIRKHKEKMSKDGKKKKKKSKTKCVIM
KRas wild type, sequence (P01116-2 other isoform, or with tags, fused parts or gaps): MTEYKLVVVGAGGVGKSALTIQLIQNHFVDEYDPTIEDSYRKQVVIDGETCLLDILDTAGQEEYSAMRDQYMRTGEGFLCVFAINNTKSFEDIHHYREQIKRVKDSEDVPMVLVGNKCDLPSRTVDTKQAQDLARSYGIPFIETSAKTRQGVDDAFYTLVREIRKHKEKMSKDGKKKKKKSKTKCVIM
KRas G12C/Q61H double mutant, sequence (P01116-2 other isoform, or with tags, fused parts or gaps G12C/Q61H): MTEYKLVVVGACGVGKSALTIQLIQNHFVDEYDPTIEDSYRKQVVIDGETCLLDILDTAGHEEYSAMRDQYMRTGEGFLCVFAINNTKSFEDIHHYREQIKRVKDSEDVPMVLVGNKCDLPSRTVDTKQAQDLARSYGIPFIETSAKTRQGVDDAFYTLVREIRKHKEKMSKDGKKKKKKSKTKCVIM

By inhibition is commonly meant the drop in the measured response relative to a control, in per cent. As to `Oc1nc(-c2ccccn2)nc2sc3c(c12)CCNC3` [drawing 2851], the inhibition at 20 µM in assay [1] (setting [7]) lay in the range of 76 to 100%; in assay [2] (setting [8]) it was 51 to 75%; in assay [3] (setting [9]) it was 25 to 50%; in assay [4] (setting [10]) it was 51 to 75%; in assay [5] (setting [11]) it was 51 to 75%; in assay [6] (setting [12]) it was 51 to 75%.

As to `Oc1nc(-c2ccccn2)nc2c(-c3ccc4c(c3)CCCO4)csc12` [drawing 2902], the inhibition at 20 µM lay in the range of 51 to 75% in assay [1] (setting [7]); 25 to 50% in assay [2] (setting [8]); 25 to 50% in assay [3] (setting [9]); 25 to 50% in assay [4] (setting [10]); 25 to 50% in assay [5] (setting [11]); 51 to 75% in assay [6] (setting [12]).

`Cc1sc2c(O)nc(-c3ccccn3)nc2c1-c1ccccc1` [drawing 2905]: the inhibition at 20 µM lay in the range of 51 to 75% in assay [1] (setting [7]); 51 to 75% in assay [2] (setting [8]); 25 to 50% in assay [3] (setting [9]); 1 to 25% in assay [4] (setting [10]); 25 to 50% in assay [5] (setting [11]); 25 to 50% in assay [6] (setting [12]).

`Oc1nc(-c2ccccn2)nc2c(-c3cccc(C(F)(F)F)c3)csc12` [drawing 2873]: the inhibition at 20 µM in assay [1] (setting [7]) was in the range of 51 to 75%; in assay [2] (setting [8]), 25 to 50%; in assay [3] (setting [9]), 25 to 50%; in assay [4] (setting [10]), 25 to 50%; in assay [5] (setting [11]) it was 25 to 50%; in assay [6] (setting [12]), 51 to 75%.

As for `CN(C)CCOc1cccc(-c2csc3c(O)nc(-c4ccccn4)nc23)c1` [drawing 3492], the inhibition at 20 µM is 76 to 100% in assay [1] (setting [13]); 76 to 100% in assay [2] (setting [14]); 51 to 75% in assay [3] (setting [15]); 51 to 75% in assay [4] (setting [16]); 76 to 100% in assay [5] (setting [17]); 76 to 100% in assay [6] (setting [18]).

As usually defined, the IC50 is the concentration at which inhibition is half-maximal. For the molecule `Oc1nc(-c2ccccn2)nc2c(-c3cc(F)cc(F)c3)csc12` [drawing 2900], the inhibition at 20 µM in assay [1] (setting [7]) was 51 to 75%; in assay [2] (setting [8]) it was 51 to 75%; in assay [3] (setting [9]), 51 to 75%; in assay [4] (setting [10]), 25 to 50%; in assay [5] (setting [11]), 51 to 75%; in assay [6] (setting [12]), 51 to 75%. Besides, the IC50 in assay [2] (serial dilution, read-out: KRas G12D Q61H (classes E-H, IC50)) is > 30 µM.

Regarding `Oc1nc(-c2ccccn2)nc2cc(-c3ccccc3)sc12` [drawing 3562], the inhibition at 20 µM in assay [1] (setting [13]) lay within 51 to 75%; in assay [2] (setting [14]), 51 to 75%; in assay [3] (setting [15]), 25 to 50%; in assay [4] (setting [16]), 51 to 75%; in assay [5] (setting [17]), 25 to 50%; in assay [6] (setting [18]) it was 25 to 50%.

On to `Cc1sc2c(O)nc(-c3ccccn3)nc2c1-c1cccnc1` [drawing 3468], for which the inhibition at 20 µM in assay [1] (setting [13]) lay in the range of 51 to 75%; in assay [2] (setting [14]), 25 to 50%; in assay [3] (setting [15]) it was 25 to 50%; in assay [4] (setting [16]), 25 to 50%; in assay [5] (setting [17]), 51 to 75%; in assay [6] (setting [18]), 51 to 75%.

As for `Cc1cc2nc(-c3ccccn3)nc(N)c2s1` [drawing 2836], the inhibition at 20 µM lay within 51 to 75% in assay [1] (setting [7]); 51 to 75% in assay [2] (setting [8]); 1 to 25% in assay [3] (setting [9]); 25 to 50% in assay [4] (setting [10]); 51 to 75% in assay [5] (setting [11]); 51 to 75% in assay [6] (setting [12]).

Turning to `Cc1nn(C(C)C)cc1-c1csc2c(O)nc(-c3ccccn3)nc12` [drawing 3506], the inhibition at 20 µM in assay [1] (setting [13]) lay in the range of 51 to 75%; in assay [2] (setting [14]), 51 to 75%; in assay [3] (setting [15]) it was 25 to 50%; in assay [4] (setting [16]), 25 to 50%; in assay [5] (setting [17]), 51 to 75%; in assay [6] (setting [18]), 51 to 75%.

For the molecule `CC(C)Oc1cnc(-c2ccccn2)nc1O` [drawing 3481], the inhibition at 20 µM in assay [1] (setting [13]) fell in the range of 51 to 75%; in assay [2] (setting [14]), 51 to 75%; in assay [3] (setting [15]), 51 to 75%; in assay [4] (setting [16]), 25 to 50%; in assay [5] (setting [17]), 76 to 100%; in assay [6] (setting [18]), 51 to 75%.
